Experimental data taken from patent publication US8791138B2, “Compositions and methods for alleviating depression or improving cognition” (Clera Inc., priority 2008, dated 2014).

Columns and labels:
[1] = target: T1, cloned dopamine D3 receptors (Homo sapiens, UniProt P35462); assay: Radioligand Kd at cloned dopamine D3 receptors; format: binding
T1 construct: expressed in transfected cells

[2] = tested on: depressive symptoms in acute exacerbations of schizophrenia; details: amisulpride 400-800 mg/day, haloperidol 15-20 mg/day, risperidone 8 mg/day; Peuskens et al. 2002; cited from earlier work
[3] = tested on: duration of immobility in the forced swimming test; details: mice, Nakazawa et al. 2003, cited from earlier work
[4] = tested on: dopamine behavioral supersensitivity; assay: Dopamine behavioral supersensitivity in animals; format: in vivo; details: P. Seeman, Unpublished Results
[5] = tested on: depression (Major Depressive Disorder); assay: Clinical observation of treatment-resistant depression patients, Hamilton Scale for Depression; format: in vivo, human
From the text: All subjects were patients of a clinic for treatment-resistant depression at a tertiary hospital. Treatment-resistance was defined as a treatment failure on at least two other antidepressants prior to their referral to the clinic. Patients were deemed to be depressed by the referring psychiatrist as well as the treating psychiatrist according to DSM IV Criteria for Major Depressive Disorder.
The higher the value, the more severe the depression.

T1 sequence (P35462 whole entry): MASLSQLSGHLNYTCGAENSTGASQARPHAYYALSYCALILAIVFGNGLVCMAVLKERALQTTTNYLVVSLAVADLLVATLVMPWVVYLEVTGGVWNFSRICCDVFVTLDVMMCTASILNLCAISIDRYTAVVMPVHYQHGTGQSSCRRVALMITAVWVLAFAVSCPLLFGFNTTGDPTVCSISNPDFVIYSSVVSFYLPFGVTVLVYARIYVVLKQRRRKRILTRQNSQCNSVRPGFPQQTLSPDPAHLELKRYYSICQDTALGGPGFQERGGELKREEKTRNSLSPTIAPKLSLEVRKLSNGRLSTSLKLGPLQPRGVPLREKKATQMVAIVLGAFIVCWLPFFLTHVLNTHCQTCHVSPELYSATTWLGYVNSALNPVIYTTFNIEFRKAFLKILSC

CCN1CCC[C@H]1CNC(=O)c1c(O)c(Cl)cc(Cl)c1OC (racemic) [[^3H]raclopride]
Kd [1]: 1.6 nM

CCN1CCCC1CNC(=O)c1cc(S(=O)(=O)CC)c(N)cc1OC (stereo not shown) [amisulpride]
Brief Psychiatric Rating Scale (BPRS) anxiety/depression subscore [2]: 5.6±6.1

O=c1cc(-c2ccc(O)cc2)oc2cc(O)cc(O)c12 [apigenin]
duration of immobility in the forced swimming test [3]: significantly decreased

CNCCC(Oc1ccc(C(F)(F)F)cc1)c1ccccc1 (stereo not shown) [fluoxetine]
dopamine behavioral supersensitivity in animals [4]: cause dopamine behavioral supersensitivity

O=C(CCCN1CCC(O)(c2ccc(Cl)cc2)CC1)c1ccc(F)cc1 [haloperidol]
Brief Psychiatric Rating Scale (BPRS) anxiety/depression subscore [2]: 4.4±5.5 | effect on apigenin-induced decrease in immobility in the forced swimming test ([3]; haloperidol 0.2 mg/kg): blocked | Rating after end of haloperidol (Hamilton depression scale) ([5]; Subject A, 5th week after starting medication, rating before 7-day regimen 14): 9 (5th week) | Rating after end of haloperidol (Hamilton depression scale) ([5]; Subject B, 5th week after starting medication, rating before 7-day regimen 18): 15 (5th week) | Rating after end of haloperidol (Hamilton depression scale) ([5]; Subject C, 5th week after starting medication, rating before 7-day regimen 30): 12 (5th week) | Rating after end of haloperidol (Hamilton depression scale) ([5]; Subject D, 5th week after starting medication, rating before 7-day regimen 40): 32 (5th week) | Rating after end of haloperidol (Hamilton depression scale) ([5]; Subject E, 4th week after starting medication, rating before 7-day regimen 23): 7 (4th week) | Rating after end of haloperidol (Hamilton depression scale) ([5]; Subject F, 5th week after starting medication, rating before 7-day regimen 20): 4 (5th week) | Rating after end of haloperidol (Hamilton depression scale) ([5]; Subject G, 5th week after starting medication, rating before 7-day regimen 24): 13 (5th week) | severity of the depression after the 7-day treatment regimen ([5]; all patients, oral 0.2-0.3 mg/day graded for 7 days): decreased

CN(C)CCCN1c2ccccc2CCc2ccccc21 [imipramine]
dopamine behavioral supersensitivity in animals [4]: cause dopamine behavioral supersensitivity

Cc1nc2n(c(=O)c1CCN1CCC(c3noc4cc(F)ccc34)CC1)CCCC2 [risperidone]
Brief Psychiatric Rating Scale (BPRS) anxiety/depression subscore [2]: 3.7±4.7
